Results as given in US6447748B1, “Benzamide compounds for cancer imaging and therapy” (Research Corporation Technologies, Inc., priority 1993, dated 2002).

Assays:
[1] = system: human A2058 melanoma xenografts; experiment: Biodistribution in nude mice xenografted with human melanotic melanoma; assay type: in vivo, Balb/c nu/nu mice; details: for RATIO Tumor/Blood / RATIO Tumor/Muscle / Biodistribution Blood / Biodistribution Bone / Biodistribution Brain / Biodistribution Heart / Biodistribution Intestine / Biodistribution Kidney / Biodistribution Liver / Biodistribution Lung / Biodistribution Muscle / Biodistribution Spleen / Biodistribution Stomach / Biodistribution Thyroid / Biodistribution Tumor: nude mice, human melanotic melanoma, mean (std. dev.); for Biodistribution Blood / Biodistribution Bone / Biodistribution Brain / Biodistribution Heart / Biodistribution Intestine / Biodistribution Kidney / Biodistribution Liver / Biodistribution Lung / Biodistribution Muscle / Biodistribution Spleen / Biodistribution Stomach / Biodistribution Thyroid / Biodistribution Tumor: n = 6
Method: A2058 tumor cells, derived from a brain metastasis of human malignant melanoma (Todaro et al. 1980 Proc. Natl. Acad. Sci. USA 77:5258) were obtained from the National Institutes of Health. […] Suspension of 5×10^6 cells (viability greater than 95%) in 0.2 mL of medium were inoculated subcutaneously in female Balb/c nu/nu mice. After about two weeks, solid tumors of about 1 cm in diameter appeared in approximately 85% of all inoculated mice. […] Balb/c nu/nu mice (17-22 g) were injected intravenously with 0.2 ml of a saline solution containing [^125I]PAB (5-6 μCi). […] The values obtained were normalized to a mouse weighing 20 g. The differences between [^125I]PAB and [^125I]DAB were examined by Student's unpaired t tests.

[2] = system: human squamous cell carcinoma xenografts; experiment: Biodistribution in nude mice xenografted with human squamous cell carcinoma; assay type: in vivo, Balb/c nu/nu mice; details: for Biodistribution Blood / Biodistribution Bone / Biodistribution Brain / Biodistribution Heart / Biodistribution Intestine / Biodistribution Kidney / Biodistribution Liver / Biodistribution Lung / Biodistribution Spleen / Biodistribution Stomach / Biodistribution Thyroid / Biodistribution Tumor: nude mice, human squamous cell carcinoma, mean (std. dev.), n = 6
Method: Non-small cell lung carcinoma cell lines NCI-157, NCI-838 and NCI-1299 were obtained from the National Cancer Institute. The NCI-157 cell line is a squamous carcinoma cell line, while NCI-838 is an adenocarcinoma cell line and NCI-1299 is a large cell lung carcinoma cell. […] Suspension of 5×10^6 cells (viability greater than 95%) in 0.2 mL of medium were inoculated subcutaneously in female Balb/c nu/nu mice. After about two weeks, solid tumors of about 1 cm in diameter appeared in approximately 85% of all inoculated mice. […] Balb/c nu/nu mice (17-22 g) were injected intravenously with 0.2 ml of a saline solution containing [^125I]PAB (5-6 μCi). […] The values obtained were normalized to a mouse weighing 20 g.

## CCN(CC)CCNC(=O)c1ccc([125I])cc1 [[^125I]DAB, ^125I-N-(diethylaminoethyl)4-iodobenzamide, reference compound]
[1]; 1 Hour
  RATIO Tumor/Blood: 5.68 (2.75)
  RATIO Tumor/Muscle: 5.33 (1.65)
  Biodistribution Blood: 1.03 (.318) % ID/g
  Biodistribution Bone: 1.04 (.476) % ID/g
  Biodistribution Brain: 1.04 (.0855) % ID/g
  Biodistribution Heart: 1.67 (.210) % ID/g
  Biodistribution Intestine: 5.04 (1.47) % ID/g
  Biodistribution Kidney: 4.63 (.905) % ID/g
  Biodistribution Liver: 12.7 (1.69) % ID/g
  Biodistribution Lung: 6.32 (1.55) % ID/g
  Biodistribution Muscle: 0.988 (.125) % ID/g
  Biodistribution Spleen: 3.46 (.206) % ID/g
  Biodistribution Stomach: 3.84 (1.98) % ID/g
  Biodistribution Thyroid: 5.68 (1.02) % ID/g
  Biodistribution Tumor: 5.18 (1.31) % ID/g
[1]; 6 Hour
  RATIO Tumor/Blood: 28.1 (5.84)
  RATIO Tumor/Muscle: 33.3 (14.0)
  Biodistribution Blood: 1.03 (0.197) % ID/g
  Biodistribution Bone: 0.100 (.0297) % ID/g
  Biodistribution Brain: 0.132 (.0204) % ID/g
  Biodistribution Heart: 0.150 (.0329) % ID/g
  Biodistribution Intestine: 0.423 (.0963) % ID/g
  Biodistribution Kidney: 0.435 (.0909) % ID/g
  Biodistribution Liver: 3.74 (.427) % ID/g
  Biodistribution Lung: 0.458 (.0993) % ID/g
  Biodistribution Muscle: 0.0967 (.0356) % ID/g
  Biodistribution Spleen: 0.260 (.0990) % ID/g
  Biodistribution Stomach: 0.475 (.164) % ID/g
  Biodistribution Thyroid: 0.400 (.124) % ID/g
  Biodistribution Tumor: 2.83 (.388) % ID/g
[1]; 24 Hour
  RATIO Tumor/Blood: 15.5 (4.69)
  RATIO Tumor/Muscle: 39.7 (9.61)
  Biodistribution Blood: 0.0350 (0.0084) % ID/g
  Biodistribution Bone: 0.0133 (.0052) % ID/g
  Biodistribution Brain: 0.0033 (.0052) % ID/g
  Biodistribution Heart: 0.0233 (.0175) % ID/g
  Biodistribution Intestine: 0.123 (.0717) % ID/g
  Biodistribution Kidney: 0.065 (.0197) % ID/g
  Biodistribution Liver: 1.12 (.232) % ID/g
  Biodistribution Lung: 0.0633 (.0273) % ID/g
  Biodistribution Muscle: 0.0150 (.0084) % ID/g
  Biodistribution Spleen: 0.0350 (.023) % ID/g
  Biodistribution Stomach: 0.445 (.386) % ID/g
  Biodistribution Tumor: 0.553 (.241) % ID/g
[1]; 24 hrs., melanoma xenograft
  amount in tumors relative to livers: about half
[2]; 1 hr.
  Biodistribution Blood: 1.35 (0.42) % ID/g
  Biodistribution Bone: 1.85 (0.22) % ID/g
  Biodistribution Brain: 1.57 (0.05) % ID/g
  Biodistribution Heart: 2.21 (0.16) % ID/g
  Biodistribution Intestine: 5.64 (0.58) % ID/g
  Biodistribution Kidney: 7.64 (0.35) % ID/g
  Biodistribution Liver: 13.77 (0.72) % ID/g
  Biodistribution Lung: 6.38 (0.89) % ID/g
  Biodistribution Spleen: 3.58 (0.28) % ID/g
  Biodistribution Stomach: 5.41 (0.53) % ID/g
  Biodistribution Thyroid: 8.22 (0.72) % ID/g
  Biodistribution Tumor: 5.13 (0.74) % ID/g
[2]; 6 hr.
  Biodistribution Blood: 0.301 (0.04) % ID/g
  Biodistribution Bone: 0.21 (0.01) % ID/g
  Biodistribution Brain: 0.23 (0.05) % ID/g
  Biodistribution Heart: 0.38 (0.11) % ID/g
  Biodistribution Intestine: 1.34 (0.27) % ID/g
  Biodistribution Kidney: 1.07 (0.16) % ID/g
  Biodistribution Liver: 5.84 (0.51) % ID/g
  Biodistribution Lung: 1.07 (0.14) % ID/g
  Biodistribution Spleen: 0.51 (0.08) % ID/g
  Biodistribution Stomach: 2.7 (0.98) % ID/g
  Biodistribution Thyroid: 1.48 (0.55) % ID/g
  Biodistribution Tumor: 2.17 (0.09) % ID/g
[2]; 24 hr.
  Biodistribution Blood: 0.027 (0.00) % ID/g
  Biodistribution Brain: 0.00 (0.00) % ID/g
  Biodistribution Heart: 0.00 (0.00) % ID/g
  Biodistribution Intestine: 0.05 (0.01) % ID/g
  Biodistribution Kidney: 0.05 (0.00) % ID/g
  Biodistribution Liver: 1.25 (0.10) % ID/g
  Biodistribution Lung: 0.03 (0.00) % ID/g
  Biodistribution Spleen: 0.01 (0.00) % ID/g
  Biodistribution Stomach: 0.15 (0.02) % ID/g
  Biodistribution Thyroid: 0.03 (0.01) % ID/g
  Biodistribution Tumor: 0.18 (0.02) % ID/g
[2]; 24 hrs., squamous cell carcinoma xenograft
  amount in livers relative to tumors: about six-fold

## O=C(NCCN1CCCCC1)c1ccc([125I])cc1 [[^125I]PAB, ^125I(2-piperidinylaminoethyl)4-iodobenzamide]
[1]; 1 Hour
  RATIO Tumor/Blood: 4.16 (1.09)
  RATIO Tumor/Muscle: 7.16 (1.50)
  Biodistribution Blood: 0.967 (.168) % ID/g
  Biodistribution Bone: 0.750 (.0663) % ID/g
  Biodistribution Brain: 0.895 (.0887) % ID/g
  Biodistribution Heart: 1.14 (.207) % ID/g
  Biodistribution Intestine: 10.64 (.541) % ID/g
  Biodistribution Kidney: 3.82 (.561) % ID/g
  Biodistribution Liver: 6.36 (.770) % ID/g
  Biodistribution Lung: 2.34 (.277) % ID/g
  Biodistribution Muscle: 0.552 (.0711) % ID/g
  Biodistribution Spleen: 3.11 (.789) % ID/g
  Biodistribution Stomach: 3.23 (.697) % ID/g
  Biodistribution Thyroid: 4.23 (.594) % ID/g
  Biodistribution Tumor: 3.87 (.470) % ID/g
[1]; 6 Hour
  RATIO Tumor/Blood: 14.9 (5.07)
  RATIO Tumor/Muscle: 32.5 (12.0)
  Biodistribution Blood: 0.208 (.0542) % ID/g
  Biodistribution Bone: 0.115 (.0236) % ID/g
  Biodistribution Brain: 0.122 (.0331) % ID/g
  Biodistribution Heart: 0.167 (.0372) % ID/g
  Biodistribution Intestine: 2.46 (1.18) % ID/g
  Biodistribution Kidney: 0.483 (.131) % ID/g
  Biodistribution Liver: 1.16 (.212) % ID/g
  Biodistribution Lung: 0.387 (.0568) % ID/g
  Biodistribution Muscle: 0.0983 (.0306) % ID/g
  Biodistribution Spleen: 0.330 (.105) % ID/g
  Biodistribution Stomach: 0.757 (.298) % ID/g
  Biodistribution Thyroid: 0.583 (.203) % ID/g
  Biodistribution Tumor: 2.91 (.463) % ID/g
[1]; 24 Hour
  RATIO Tumor/Blood: 17.8 (6.10)
  RATIO Tumor/Muscle: 94.5 (32.5)
  Biodistribution Blood: 0.0617 (.018) % ID/g
  Biodistribution Bone: 0.0133 (.0052) % ID/g
  Biodistribution Brain: 0.0067 (.0052) % ID/g
  Biodistribution Heart: 0.0283 (.0075) % ID/g
  Biodistribution Intestine: 0.132 (.0852) % ID/g
  Biodistribution Kidney: 0.0850 (.016) % ID/g
  Biodistribution Liver: 0.263 (.0216) % ID/g
  Biodistribution Lung: 0.0717 (.0075) % ID/g
  Biodistribution Muscle: 0.0117 (.0041) % ID/g
  Biodistribution Spleen: 0.0383 (.015) % ID/g
  Biodistribution Stomach: 0.130 (0.881) % ID/g
  Biodistribution Thyroid: 0.100 (.143) % ID/g
  Biodistribution Tumor: 1.028 (.239) % ID/g
[1]; 24 hrs., melanoma xenograft
  amount in tumors relative to livers: about four-fold
  tumor concentration relative to that of [125I]DAB: twice
[2]; 1 hr.
  Biodistribution Blood: 1.99 (0.35) % ID/g
  Biodistribution Bone: 2.03 (0.28) % ID/g
  Biodistribution Brain: 1.80 (0.17) % ID/g
  Biodistribution Heart: 2.25 (0.07) % ID/g
  Biodistribution Intestine: 12.63 (0.43) % ID/g
  Biodistribution Kidney: 6.56 (0.04) % ID/g
  Biodistribution Liver: 10.48 (1.26) % ID/g
  Biodistribution Lung: 4.91 (0.25) % ID/g
  Biodistribution Spleen: 3.97 (0.18) % ID/g
  Biodistribution Stomach: 5.57 (1.31) % ID/g
  Biodistribution Thyroid: 7.84 (0.91) % ID/g
  Biodistribution Tumor: 4.27 (0.40) % ID/g
[2]; 6 hr.
  Biodistribution Blood: 0.51 (0.03) % ID/g
  Biodistribution Bone: 0.56 (0.18) % ID/g
  Biodistribution Brain: 0.29 (0.01) % ID/g
  Biodistribution Heart: 0.49 (0.03) % ID/g
  Biodistribution Intestine: 11.41 (0.52) % ID/g
  Biodistribution Kidney: 1.61 (0.28) % ID/g
  Biodistribution Liver: 3.47 (0.23) % ID/g
  Biodistribution Lung: 1.10 (0.03) % ID/g
  Biodistribution Spleen: 0.86 (0.20) % ID/g
  Biodistribution Stomach: 3.46 (0.18) % ID/g
  Biodistribution Thyroid: 2.80 (0.49) % ID/g
  Biodistribution Tumor: 3.27 (0.33) % ID/g
[2]; 24 hr.
  Biodistribution Blood: 0.15 (0.07) % ID/g
  Biodistribution Bone: 0.02 (0.00) % ID/g
  Biodistribution Brain: 0.01 (0.00) % ID/g
  Biodistribution Heart: 0.03 (0.00) % ID/g
  Biodistribution Intestine: 0.38 (0.09) % ID/g
  Biodistribution Kidney: 0.13 (0.00) % ID/g
  Biodistribution Liver: 0.39 (0.02) % ID/g
  Biodistribution Lung: 0.08 (0.00) % ID/g
  Biodistribution Spleen: 0.05 (0.00) % ID/g
  Biodistribution Stomach: 0.20 (0.03) % ID/g
  Biodistribution Thyroid: 0.09 (0.01) % ID/g
  Biodistribution Tumor: 0.66 (0.12) % ID/g
[2]; 24 hrs. post-injection, squamous cell carcinoma xenograft
  tumor concentration relative to that of [125I]DAB: more than three-fold
